Here are results for twelve compounds from ChEMBL document CHEMBL4382233, “Discovery of novel arylethenesulfonyl fluorides as potential candidates against methicillin-resistant of Staphylococcus aureus (MRSA) for overcoming multidrug resistance of bacterial infections” (2019).

Values after ≈ are worked out from the molar mass of the structure shown.

Holding throughout (assay type): functional
Assay [1] relates to Staphylococcus haemolyticus. Nature of the assay: Antibacterial activity against methicillin-resistant Staphylococcus haemolyticus assessed as zone of inhibition at 800 ng/mL after 24 hrs by agar disc diffusion method. The settings on record: read-out: IZ. On the technique in general: A growth-free zone around the sample is the usual read-out of agar diffusion tests.
The test system of assay [2] is Staphylococcus aureus. Nature of the assay: Antibacterial activity against methicillin-resistant Staphylococcus aureus assessed as zone of inhibition at 800 ng/mL after 24 hrs by agar disc diffusion method. The conditions noted are these: read-out: IZ.
Assay [3] concerns Staphylococcus haemolyticus. Description: Antibacterial activity against methicillin-resistant Staphylococcus haemolyticus assessed as zone of inhibition at 400 ng/mL after 24 hrs by agar disc diffusion method. The conditions noted are these: read-out: IZ.
In assay [4] the test system is Staphylococcus haemolyticus. Description: Antibacterial activity against methicillin-resistant Staphylococcus haemolyticus after overnight incubation by micro broth dilution analysis. Background: Dilution methods test growth across graded concentrations, often in twofold steps.
In assay [5] the test system is Staphylococcus haemolyticus. Description: Antibacterial activity against methicillin-resistant Staphylococcus haemolyticus assessed as zone of inhibition at 200 ng/mL after 24 hrs by agar disc diffusion method. The settings on record: read-out: IZ.
In assay [6] the test system is Staphylococcus aureus. Nature of the assay: Antibacterial activity against methicillin-resistant Staphylococcus aureus assessed as zone of inhibition at 400 ng/mL after 24 hrs by agar disc diffusion method. The settings on record: read-out: IZ.
Assay [7] deals with Staphylococcus epidermidis. Description: Antibacterial activity against methicillin-resistant Staphylococcus epidermidis assessed as zone of inhibition at 20 ug/mL after 24 hrs by agar disc diffusion method. The settings on record: read-out: IZ.
Assay [8] has as its system Staphylococcus aureus. Nature of the assay: Antibacterial activity against methicillin-resistant Staphylococcus aureus after overnight incubation by micro broth dilution analysis.
Assay [9] concerns Staphylococcus aureus. Nature of the assay: Antibacterial activity against methicillin-resistant Staphylococcus aureus assessed as zone of inhibition at 200 ng/mL after 24 hrs by agar disc diffusion method. The conditions noted are these: read-out: IZ.
In assay [10] the test system is Staphylococcus epidermidis. Description: Antibacterial activity against methicillin-resistant Staphylococcus epidermidis after overnight incubation by micro broth dilution analysis.
For assay [11], the system named is Staphylococcus haemolyticus. Description: Antibacterial activity against methicillin-resistant Staphylococcus haemolyticus assessed as zone of inhibition at 50 ug/mL after 24 hrs by agar disc diffusion method. The settings on record: read-out: IZ.
Assay [12] relates to Staphylococcus aureus. Nature of the assay: Antibacterial activity against methicillin-resistant Staphylococcus aureus assessed as zone of inhibition at 50 ug/mL after 24 hrs by agar disc diffusion method. The settings on record: read-out: IZ.
For assay [13], the system named is Staphylococcus epidermidis. Description: Antibacterial activity against methicillin-resistant Staphylococcus epidermidis assessed as zone of inhibition at 400 ng/mL after 24 hrs by agar disc diffusion method. The conditions noted are these: read-out: IZ.
The subject of assay [14] is Staphylococcus epidermidis. Nature of the assay: Antibacterial activity against methicillin-resistant Staphylococcus epidermidis assessed as zone of inhibition at 800 ng/mL after 24 hrs by agar disc diffusion method. The conditions noted are these: read-out: IZ.
Assay [15] relates to Staphylococcus epidermidis. Nature of the assay: Antibacterial activity against methicillin-resistant Staphylococcus epidermidis assessed as zone of inhibition at 200 ng/mL after 24 hrs by agar disc diffusion method. The conditions noted are these: read-out: IZ.

One may read the MIC99 as the lowest concentration that inhibits either 99% of growth or 99% of the strains tested, depending on the study. Read a high MIC99 as weaker potency. In the case of `O=Cc1cccc(/C=C/S(=O)(=O)F)c1`, the zone of inhibition at 0.8 µg/mL is 6.1 mm in assay [1] and 4.2 mm in [2]. The zone of inhibition at 0.4 µg/mL in assay [3] worked out at 5.1 mm; in [6] it was 3.5 mm. Besides, the results for the MIC99 in assay [4], in assay [8] and in assay [10] were 0.828 µg/mL (≈ 3.87 µM), 17.2 µg/mL (≈ 80.2 µM) and 41.1 µg/mL (≈ 192 µM), respectively. For the same compound, the zone of inhibition at 0.2 µg/mL in assay [5] was determined as 2.2 mm; in assay [9], 3.1 mm. In addition, the zone of inhibition at 20 µg/mL in assay [7] was determined as 6.5 mm. Moreover, the zone of inhibition at 50 µg/mL in [11] is 8.2 mm; in [12], 10.3 mm.
For the compound `O=S(=O)(F)/C=C/c1ccccc1`, the zone of inhibition at 0.8 µg/mL is 3.2 mm in assay [1], 4.5 mm in assay [2] and 5.5 mm in [14]. Moreover, the zone of inhibition at 0.4 µg/mL is 4.2 mm in assay [13], 1.2 mm in assay [3] and 4.2 mm in [6]. Also, the values for the MIC99 in assay [4], in [8] and in assay [10] were 20.1 µg/mL (≈ 108 µM), 18.2 µg/mL (≈ 97.5 µM) and 15.2 µg/mL (≈ 81.4 µM), respectively. In addition, the zone of inhibition at 0.2 µg/mL in [5] is 0 mm; in assay [9] it was 3.5 mm; in [15] it was 0.1 mm. The zone of inhibition at 20 µg/mL in [7] came out at 11.2 mm. Also, the figures for the zone of inhibition at 50 µg/mL in assay [11] and in assay [12] were 7.2 mm and 8.2 mm, respectively.
For the compound `CCOC(=O)/C=C/C=C/S(=O)(=O)F`, the zone of inhibition at 0.8 µg/mL in assay [1] turned out to be 5.1 mm; in assay [14], 3.1 mm. The figures for the zone of inhibition at 0.4 µg/mL in assay [13] and in [3] were 4.1 mm and 3.2 mm, respectively. Also, the MIC99 in [4] is 56.1 µg/mL (≈ 269 µM); in assay [8] it was 40.3 µg/mL (≈ 193 µM); in [10], 47 µg/mL (≈ 226 µM). Besides, the zone of inhibition at 0.2 µg/mL in assay [5] is 0 mm; in [15] it was 3.3 mm. In addition, in assay [7], the zone of inhibition at 20 µg/mL is 8.2 mm. Besides, the zone of inhibition at 50 µg/mL in assay [11] stood at 7.5 mm; in assay [12], 4.1 mm.
Take `CSc1ccc(/C=C/S(=O)(=O)F)cc1`: in assay [1], the zone of inhibition at 0.8 µg/mL is 7.4 mm. In [3], the zone of inhibition at 0.4 µg/mL stood at 5.2 mm. The MIC99 in assay [4] is 0.838 µg/mL (≈ 3.61 µM); in assay [8] it was 41.1 µg/mL (≈ 177 µM); in [10] it was 0.835 µg/mL (≈ 3.59 µM). In addition, the zone of inhibition at 0.2 µg/mL in [5] turned out to be 3.1 mm. The zone of inhibition at 20 µg/mL in assay [7] amounted to 6.4 mm. The zone of inhibition at 50 µg/mL in assay [11] was determined as 8.2 mm; in assay [12], 6.2 mm.
With `O=S(=O)(F)/C=C/c1cccc(I)c1`, the results for the zone of inhibition at 0.8 µg/mL in [1] and in assay [14] were 3.2 mm and 8.1 mm, respectively. For the same compound, the zone of inhibition at 0.4 µg/mL is 7.1 mm in assay [13] and 0 mm in [3]. The MIC99 in [4] amounted to 23.1 µg/mL (≈ 74.2 µM); in assay [8], 46 µg/mL (≈ 148 µM); in assay [10], 0.825 µg/mL (≈ 2.64 µM). Also, the zone of inhibition at 0.2 µg/mL in [5] came to 0 mm; in assay [15] it was 6.1 mm. Besides, the zone of inhibition at 20 µg/mL in assay [7] came to 8.2 mm. In addition, the zone of inhibition at 50 µg/mL amounted to 8.2 mm in assay [11] and 12.3 mm in [12].
As for `O=S(=O)(F)/C=C/c1cc(C(F)(F)F)cc(C(F)(F)F)c1`, the zone of inhibition at 0.8 µg/mL in assay [1] turned out to be 4.2 mm; in [2], 10.3 mm. Moreover, the zone of inhibition at 0.4 µg/mL worked out at 3.1 mm in assay [3] and 7.1 mm in assay [6]. Besides, the MIC99 in assay [4] was 18.1 µg/mL (≈ 56.3 µM); in [8], 0.814 µg/mL (≈ 2.53 µM); in assay [10], 60.2 µg/mL (≈ 187 µM). Further, the results for the zone of inhibition at 0.2 µg/mL in [5] and in [9] were 0 mm and 6.2 mm, respectively. Moreover, in [7], the zone of inhibition at 20 µg/mL came out at 6.5 mm. The zone of inhibition at 50 µg/mL stood at 7.1 mm in assay [11] and 14.4 mm in [12].
Take `O=[N+]([O-])c1ccccc1/C=C/C=C/S(=O)(=O)F`: the zone of inhibition at 0.8 µg/mL in assay [1] amounted to 5.2 mm. In addition, the zone of inhibition at 0.4 µg/mL in [3] was found to be 4.2 mm. For the same compound, the MIC99 in assay [4] worked out at 16.2 µg/mL (≈ 62.8 µM); in [8], 47 µg/mL (≈ 183 µM); in [10] it was 44 µg/mL (≈ 171 µM). Also, the zone of inhibition at 0.2 µg/mL in assay [5] worked out at 3.2 mm. Moreover, in [7], the zone of inhibition at 20 µg/mL was determined as 6.2 mm. The zone of inhibition at 50 µg/mL in assay [11] amounted to 6.5 mm; in assay [12], 5.5 mm.
For the compound `Cc1cccc(/C=C/S(=O)(=O)F)c1`, the zone of inhibition at 0.8 µg/mL in [1] came out at 10.3 mm; in [2] it was 6.2 mm. Moreover, the zone of inhibition at 0.4 µg/mL in assay [3] is 8.2 mm; in [6], 5.2 mm. Also, the MIC99 in [4] worked out at 0.812 µg/mL (≈ 4.06 µM); in assay [8], 0.844 µg/mL (≈ 4.22 µM); in assay [10], 57.2 µg/mL (≈ 286 µM). The zone of inhibition at 0.2 µg/mL is 6.1 mm in assay [5] and 4.3 mm in assay [9]. For the same compound, the zone of inhibition at 20 µg/mL in [7] worked out at 3.5 mm. Further, the zone of inhibition at 50 µg/mL in assay [11] came to 12.2 mm; in assay [12], 10.1 mm.
Consider `O=S(=O)(F)/C=C/c1ccc(C(F)(F)F)cc1`, for which the values for the zone of inhibition at 0.8 µg/mL in assay [2] and in assay [14] were 15.1 mm and 11.4 mm, respectively. The zone of inhibition at 0.4 µg/mL in assay [13] and in [6] was 10.1 mm in each case. Also, the MIC99 in assay [4] came out at 60.2 µg/mL (≈ 237 µM); in assay [8] it was 0.815 µg/mL (≈ 3.21 µM); in [10], 0.812 µg/mL (≈ 3.19 µM). Also, in assay [7], the zone of inhibition at 20 µg/mL was determined as 12.1 mm. Also, the zone of inhibition at 0.2 µg/mL in [9] is 6.2 mm; in [15], 9.1 mm. Besides, the zone of inhibition at 50 µg/mL in [11] worked out at 3.5 mm; in assay [12] it was 9.1 mm.
Regarding `CC(=O)c1ccc(/C=C/S(=O)(=O)F)cc1`, the zone of inhibition at 0.8 µg/mL in assay [1] turned out to be 6.1 mm; in assay [2], 10.2 mm. Besides, the zone of inhibition at 0.4 µg/mL stood at 5.2 mm in assay [3] and 8.2 mm in assay [6]. Also, the figures for the MIC99 in assay [4], in [8] and in assay [10] were 0.84 µg/mL (≈ 3.68 µM), 0.822 µg/mL (≈ 3.6 µM) and 54.2 µg/mL (≈ 237 µM), respectively. Moreover, the zone of inhibition at 0.2 µg/mL was 3.3 mm in assay [5] and 6.2 mm in [9]. The zone of inhibition at 20 µg/mL in [7] came out at 6.5 mm. Further, the zone of inhibition at 50 µg/mL worked out at 7.2 mm in assay [11] and 14.1 mm in assay [12].
As to `Cc1ccccc1/C=C/S(=O)(=O)F`, the figures for the zone of inhibition at 0.8 µg/mL in assay [2] and in [14] were 6.4 mm and 4.5 mm, respectively. Moreover, the values for the zone of inhibition at 0.4 µg/mL in assay [13] and in [6] were 3.4 mm and 5.1 mm, respectively. In addition, the MIC99 in assay [4] came to 54.1 µg/mL (≈ 270 µM); in assay [8], 0.849 µg/mL (≈ 4.24 µM); in assay [10], 17.2 µg/mL (≈ 85.8 µM). Also, in assay [7], the zone of inhibition at 20 µg/mL came out at 15.3 mm. Also, the figures for the zone of inhibition at 0.2 µg/mL in assay [9] and in assay [15] were 4.2 mm and 2.2 mm, respectively. In addition, the figures for the zone of inhibition at 50 µg/mL in [11] and in assay [12] were 5.4 mm and 15.4 mm, respectively.
As to `O=S(=O)(F)/C=C/c1cccc(Br)c1`, the zone of inhibition at 0.8 µg/mL was 52 mm in assay [1] and 12 mm in [2]. For the same compound, the figures for the zone of inhibition at 0.4 µg/mL in assay [3] and in assay [6] were 42 mm and 10.1 mm, respectively. Moreover, the MIC99 in assay [4] was determined as 16.1 µg/mL (≈ 60.8 µM); in assay [8], 0.813 µg/mL (≈ 3.07 µM); in assay [10], 58.2 µg/mL (≈ 219 µM). Also, the zone of inhibition at 0.2 µg/mL is 32 mm in [5] and 5.1 mm in [9]. In addition, the zone of inhibition at 20 µg/mL in assay [7] was 4.5 mm. For the same compound, the zone of inhibition at 50 µg/mL came out at 8.5 mm in [11] and 17.1 mm in [12].
